Calls of active or inactive are those of the source. The calls are words filed in the database; no cut-off is given here.
Assays:
SF-295 = assay: Anticancer activity against human SF-295 cells assessed as cell growth inhibition measured after 48 hrs by SRB assay; type: functional
NCI-H522 [1] = assay: Induction of apoptosis in human NCI-H522 cells assessed as late apoptotic cells at 0.05 uM incubated for 48 hrs by Annexin V-FITC/PI staining based flow cytometric analysis (Rvb =9.14 %); type: functional
NCI-H522 [2] = assay: Induction of apoptosis in human NCI-H522 cells assessed as early apoptotic cells at 5 uM incubated for 48 hrs by Annexin V-FITC/PI staining based flow cytometric analysis (Rvb =7.01 %); type: functional
A549 = assay: Anticancer activity against human A549 cells assessed as cell growth inhibition measured after 48 hrs by SRB assay; type: functional
NCI-H460 [3] = assay: Inhibition of polyribosome in human NCI-H460 cells assessed as increase in 80S ribosome at 200 nM incubated for 1 hr in presence of cycloheximide; type: functional, cell-based
NCI-H522 [4] = assay: Induction of apoptosis in human NCI-H522 cells assessed as early apoptotic cells at 0.5 uM incubated for 48 hrs by Annexin V-FITC/PI staining based flow cytometric analysis (Rvb =7.01 %); type: functional
NCI-H522 [5] = assay: Induction of apoptosis in human NCI-H522 cells assessed as necrotic cells at 0.5 uM incubated for 48 hrs by Annexin V-FITC/PI staining based flow cytometric analysis (Rvb =0.64 %); type: functional
NCI-H460 [6] = assay: Induction of apoptosis in human NCI-H460 cells assessed as effect on caspase 7 level at 1 uM measured for 48 hrs by western blot analysis; type: functional, cell-based
[7] = Oral bioavailability in BALB/c nude mouse at 10 mg/kg by LC-MS/MS analysis; type: ADME, organism-based; conditions: in vivo
[8] = Toxicity in BALB/c nude mouse xenografted with human NCI-H522 cells assessed as change in body weight at 12.5 to 50 mg/kg, iv administered every 4 days for 21 days; type: organism-based; conditions: in vivo, 96 h, dose 12.5-50 mg/kg, time 4 day
[9] = Cmax in BALB/c nude mouse at 1 mg/kg, iv by LC-MS/MS analysis; type: ADME, organism-based; design: dose 1 mg/kg, route iv; conditions: in vivo
NCI-H522 [10] = assay: Induction of apoptosis in human NCI-H522 cells assessed as late apoptotic cells at 5 uM incubated for 48 hrs by Annexin V-FITC/PI staining based flow cytometric analysis (Rvb =9.14 %); type: functional
786-0 = assay: Anticancer activity against human 786-0 cells assessed as cell growth inhibition measured after 48 hrs by SRB assay; type: functional
NCI-H522 [11] = assay: Induction of mitochondrial membrane potential depolarization in human NCI-H522 cells measured after 48 hrs by JC-1 staining based flow cytometry analysis; type: functional, cell-based; conditions: dose 0.05-5 µM, DDE = dose-dependent effect
NCI-H522 [12] = assay: Induction of apoptosis in human NCI-H522 cells assessed as viable cells at 0.05 uM incubated for 48 hrs by Annexin V-FITC/PI staining based flow cytometric analysis (reference value: 82.4%); type: functional; conditions: read-out: Activity
NCI-H522 [13] = assay: Antitumor activity against human NCI-H522 cells xenografted in BALB/c nude mouse assessed as reduction of tumor growth by measuring T/C ratio at 50 mg/kg, iv administered every 4 days for 21 days; type: functional; conditions: time 4 day
[14] = Half life in BALB/c nude mouse at 10 mg/kg, po by LC-MS/MS analysis; type: ADME, organism-based; conditions: in vivo
NCI-H522 [15] = assay: Induction of apoptosis in human NCI-H522 cells assessed as viable cells at 5 uM incubated for 48 hrs by Annexin V-FITC/PI staining based flow cytometric analysis (reference value: 82.4%); type: functional; conditions: read-out: Activity
NCI-H460 [16] = assay: Induction of apoptosis in human NCI-H460 cells assessed as effect on caspase 9 level at 1 uM measured for 48 hrs by western blot analysis; type: functional, cell-based
LOX IMVI = assay: Anticancer activity against human LOX IMVI cells assessed as cell growth inhibition measured after 48 hrs by SRB assay; type: functional
NCI-H522 [17] = assay: Induction of apoptosis in human NCI-H522 cells assessed as necrotic cells at 5 uM incubated for 48 hrs by Annexin V-FITC/PI staining based flow cytometric analysis (Rvb =0.64 %); type: functional
NCI-H522 [18] = assay: Induction of apoptosis in human NCI-H522 cells assessed as apoptotic rate at 0.05 to 5 uM incubated for 48 hrs by AnnexinV-FITC/PI staining based flow cytometric analysis; type: functional; conditions: dose 0.05-5 µM
NCI-H522 [19] = assay: Antitumor activity against human NCI-H522 cells xenografted in BALB/c nude mouse assessed as reduction of tumor weight at 50 mg/kg, iv administered every 4 days for 21 days; type: functional; design: scale not given: the % may be the effect or the level left; conditions: time 4 day
NCI-H460 [20] = assay: Induction of apoptosis in human NCI-H460 cells assessed as effect on cleavage of PARP at 1 uM measured for 48 hrs by western blot analysis; type: functional, cell-based
NCI-H460 [21] = assay: Downregulation of c-Myc protein expression level in human NCI-H460 cells at 20 nM incubated for 0.5 to 6 hrs by western blot analysis; type: functional, cell-based; conditions: time 0.5-6 hrs
[22] = AUC (0 to t) in BALB/c nude mouse at 1 mg/kg, iv by LC-MS/MS analysis; type: ADME, organism-based; design: dose 1 mg/kg, route iv; conditions: in vivo
NCI-H522 [23] = assay: Induction of apoptosis in human NCI-H522 cells assessed as early apoptotic cells at 0.05 uM incubated for 48 hrs by Annexin V-FITC/PI staining based flow cytometric analysis (Rvb =7.01 %); type: functional
[24] = tested on: Panel NCI-60 (60 carcinoma cell lines); assay: Anticancer activity against human Panel NCI-60 (60 carcinoma cell lines) line assessed as cell growth inhibition measured after 48 hrs by SRB assay; type: functional
NCI-H460 [25] = assay: Induction of apoptosis in human NCI-H460 cells assessed as effect on caspase 3 level at 1 uM measured for 48 hrs by western blot analysis; type: functional, cell-based
NCI-H460 [26] = assay: Induction of cell cycle arrest in human NCI-H460 cells assessed as accumulation at S phase at 20 nM incubated for 48 hrs by PI staining based flow cytometric analysis; type: functional
[27] = AUC (0 to t) in BALB/c nude mouse at 10 mg/kg, po by LC-MS/MS analysis; type: ADME, organism-based; design: dose 10 mg/kg, route po; conditions: in vivo
NCI-H522 [28] = assay: Induction of apoptosis in human NCI-H522 cells assessed as late apoptotic cells at 0.5 uM incubated for 48 hrs by Annexin V-FITC/PI staining based flow cytometric analysis (Rvb =9.14 %); type: functional
NCI-H522 [29] = assay: Antitumor activity against human NCI-H522 cells xenografted in iv dosed BALB/c nude mouse assessed as inhibition of tumor growth administered every 4 days for 21 days; type: functional, organism-based; conditions: dose 12.5-50 mg/kg, time 4.0 day, DDE = dose-dependent effect
HCT-116 = assay: Anticancer activity against human HCT-116 cells assessed as cell growth inhibition measured after 48 hrs by SRB assay; type: functional
NCI-H522 [30] = assay: Induction of apoptosis in human NCI-H522 cells assessed as viable cells at 0.5 uM incubated for 48 hrs by Annexin V-FITC/PI staining based flow cytometric analysis (reference value: 82.4%); type: functional; conditions: read-out: Activity
[31] = Inhibition of tubulin polymerization […] assessed as microtubule assembly measured every 1 min for 60 mins by fluorimeter analysis
[32] = Cmax in BALB/c nude mouse at 10 mg/kg, po by LC-MS/MS analysis; type: ADME, organism-based; design: dose 10 mg/kg, route po; conditions: in vivo
NCI-H522 [33] = assay: Induction of apoptosis in human NCI-H522 cells assessed as necrotic cells at 0.05 uM incubated for 48 hrs by Annexin V-FITC/PI staining based flow cytometric analysis (Rvb =0.64 %); type: functional

SMILES: CCN(CC)C(=O)C[C@H]1C(=O)Nc2cc(NC(=O)c3cc(OC)c(OC)c(OC)c3Br)c(Oc3cc(C)cc(C)c3)cc2C(=O)N1C
- GI50 (SF-295): < 5 nM
- Activity (NCI-H522 [1]): 25.2%
- Activity (NCI-H522 [2]): 19.8%
- GI50 (A549): < 5 nM
- Activity (NCI-H460 [3]): Active
- Activity (NCI-H522 [4]): 14.5%
- Activity (NCI-H522 [5]): 4.6%
- Activity (NCI-H460 [6]): Active
- bioavailability [7]: 1.53%
- Activity [8]: < 10%
- Cmax [9]: 1540 ng/mL
- Activity (NCI-H522 [10]): 59%
- GI50 (786-0): < 5 nM
- Activity (NCI-H522 [11]): Dde
- viability at 0.05 µM (NCI-H522 [12]): 65.8%
- T/C (NCI-H522 [13]): 13.6%
- half-life [14]: 1.4 h
- viability at 5 µM (NCI-H522 [15]): 13.5%
- Activity (NCI-H460 [16]): Active
- GI50 (LOX IMVI): < 5 nM
- Activity (NCI-H522 [17]): 7.64%
- Activity (NCI-H522 [18]): 35%
- Activity (NCI-H522 [19]): 88.7%
- Activity (NCI-H460 [20]): Active
- Activity (NCI-H460 [21]): Active
- AUC(0-t) [22]: 439 ng·h/mL
- Activity (NCI-H522 [23]): 7.75%
- GI50 [24]: < 5 nM
- Activity (NCI-H460 [25]): Active
- Activity (NCI-H460 [26]): Active
- AUC(0-t) [27]: 66.5 ng·h/mL
- Activity (NCI-H522 [28]): 52.4%
- Activity (NCI-H522 [29]): Dde
- GI50 (HCT-116): < 5 nM
- viability at 0.5 µM (NCI-H522 [30]): 28.4%
- IC50 [31]: 10100 nM
- Cmax [32]: 42.6 ng/mL
- Activity (NCI-H522 [33]): 1.25%

From ChEMBL document CHEMBL5214978, “Identification of 1,4-Benzodiazepine-2,5-dione Derivatives as Potential Protein Synthesis Inhibitors with Highly Potent Anticancer Activity” (J Med Chem, 2022)
